6 compounds from paper doi:10.1101/2023.11.24.568596v1 (biorxiv, 2023) can be followed below.

Some targets named below: EphA7 (Homo sapiens, UniProt Q15375); CaMK2b (Homo sapiens, UniProt Q13554); MSK1b (Homo sapiens, UniProt O75582); CK1e (Homo sapiens, UniProt P49674); PAK1 (Homo sapiens, UniProt Q13153); JNK2 (Homo sapiens, UniProt P45984).
Common to all, as to settings: binder
The target of the next assay is T1, DRAK1 (Homo sapiens, UniProt Q9UEE5).
T1 sequence (Q9UEE5 1-414): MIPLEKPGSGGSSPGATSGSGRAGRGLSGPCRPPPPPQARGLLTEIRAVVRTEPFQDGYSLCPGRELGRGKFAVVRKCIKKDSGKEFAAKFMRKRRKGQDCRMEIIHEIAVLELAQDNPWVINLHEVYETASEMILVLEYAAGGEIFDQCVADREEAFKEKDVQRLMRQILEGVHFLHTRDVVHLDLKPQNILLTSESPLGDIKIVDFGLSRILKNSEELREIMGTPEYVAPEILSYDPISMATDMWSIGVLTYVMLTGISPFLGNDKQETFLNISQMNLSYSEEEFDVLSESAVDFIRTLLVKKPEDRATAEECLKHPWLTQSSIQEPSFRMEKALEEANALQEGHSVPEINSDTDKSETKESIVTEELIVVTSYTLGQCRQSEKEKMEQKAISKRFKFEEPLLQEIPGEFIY

For a further assay, the target named is T2, DYRK2 (Homo sapiens, UniProt Q92630).
T2 sequence (Q92630 1-601): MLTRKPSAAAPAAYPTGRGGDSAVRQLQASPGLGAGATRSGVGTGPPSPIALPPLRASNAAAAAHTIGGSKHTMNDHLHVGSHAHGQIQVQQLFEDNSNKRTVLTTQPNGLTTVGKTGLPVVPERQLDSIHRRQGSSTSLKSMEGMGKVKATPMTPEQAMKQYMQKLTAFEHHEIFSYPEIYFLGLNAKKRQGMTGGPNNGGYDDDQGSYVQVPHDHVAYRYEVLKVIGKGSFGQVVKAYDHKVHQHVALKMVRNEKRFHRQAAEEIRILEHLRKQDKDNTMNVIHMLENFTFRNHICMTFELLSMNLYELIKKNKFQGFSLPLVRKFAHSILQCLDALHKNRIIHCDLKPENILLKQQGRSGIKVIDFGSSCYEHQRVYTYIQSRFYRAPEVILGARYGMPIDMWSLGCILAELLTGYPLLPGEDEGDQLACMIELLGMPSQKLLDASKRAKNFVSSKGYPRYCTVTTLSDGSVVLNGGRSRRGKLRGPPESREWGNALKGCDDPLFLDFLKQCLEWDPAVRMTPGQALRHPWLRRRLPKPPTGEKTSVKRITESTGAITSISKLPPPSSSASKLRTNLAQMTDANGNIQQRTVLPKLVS

The target of another assay is T3, PHKG2 (Homo sapiens, UniProt P15735).
T3 sequence (P15735 1-406): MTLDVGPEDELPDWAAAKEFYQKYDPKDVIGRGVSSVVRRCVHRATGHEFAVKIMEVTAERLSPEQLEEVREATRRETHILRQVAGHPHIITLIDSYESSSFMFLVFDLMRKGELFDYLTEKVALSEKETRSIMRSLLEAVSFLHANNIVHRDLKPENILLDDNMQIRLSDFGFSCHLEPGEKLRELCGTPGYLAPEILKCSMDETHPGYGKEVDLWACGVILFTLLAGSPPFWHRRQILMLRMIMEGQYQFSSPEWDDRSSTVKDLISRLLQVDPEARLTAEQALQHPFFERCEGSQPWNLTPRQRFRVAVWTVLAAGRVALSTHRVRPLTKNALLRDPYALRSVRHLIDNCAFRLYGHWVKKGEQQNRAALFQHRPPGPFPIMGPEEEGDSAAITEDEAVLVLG

Chain of PAK1 (Q13153 whole entry): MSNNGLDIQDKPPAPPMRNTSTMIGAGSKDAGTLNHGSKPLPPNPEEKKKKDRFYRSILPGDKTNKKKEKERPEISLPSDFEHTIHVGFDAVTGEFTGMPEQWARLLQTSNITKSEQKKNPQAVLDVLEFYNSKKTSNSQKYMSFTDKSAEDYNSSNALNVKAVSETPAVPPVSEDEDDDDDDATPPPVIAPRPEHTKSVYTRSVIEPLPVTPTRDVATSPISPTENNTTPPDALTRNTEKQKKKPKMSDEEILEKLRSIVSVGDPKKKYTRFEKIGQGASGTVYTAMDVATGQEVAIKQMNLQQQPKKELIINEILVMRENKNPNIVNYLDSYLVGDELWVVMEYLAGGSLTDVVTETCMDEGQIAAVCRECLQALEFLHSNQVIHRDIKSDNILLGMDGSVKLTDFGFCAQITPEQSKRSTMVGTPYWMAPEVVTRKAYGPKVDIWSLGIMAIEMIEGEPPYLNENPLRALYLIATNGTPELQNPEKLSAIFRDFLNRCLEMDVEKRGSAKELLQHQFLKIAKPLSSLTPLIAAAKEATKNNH
Chain of CaMK2b (Q13554 whole entry): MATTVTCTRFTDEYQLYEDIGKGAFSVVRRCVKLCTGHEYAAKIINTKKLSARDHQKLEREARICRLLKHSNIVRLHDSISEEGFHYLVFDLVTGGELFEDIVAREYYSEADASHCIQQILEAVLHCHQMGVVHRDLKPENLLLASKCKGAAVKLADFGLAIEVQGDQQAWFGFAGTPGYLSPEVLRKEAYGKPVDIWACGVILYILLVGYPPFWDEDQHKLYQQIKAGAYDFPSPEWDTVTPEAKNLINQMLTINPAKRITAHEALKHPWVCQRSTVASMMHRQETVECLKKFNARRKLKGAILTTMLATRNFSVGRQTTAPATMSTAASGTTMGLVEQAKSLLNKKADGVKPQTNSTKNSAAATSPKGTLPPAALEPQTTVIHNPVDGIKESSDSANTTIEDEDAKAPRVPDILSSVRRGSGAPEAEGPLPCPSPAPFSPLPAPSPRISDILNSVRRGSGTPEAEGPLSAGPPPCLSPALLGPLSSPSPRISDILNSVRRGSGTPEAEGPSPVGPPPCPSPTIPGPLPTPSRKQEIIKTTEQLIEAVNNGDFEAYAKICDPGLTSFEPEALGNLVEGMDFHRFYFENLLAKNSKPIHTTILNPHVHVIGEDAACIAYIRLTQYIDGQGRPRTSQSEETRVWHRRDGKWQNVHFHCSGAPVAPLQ
Chain of CK1e (P49674 whole entry): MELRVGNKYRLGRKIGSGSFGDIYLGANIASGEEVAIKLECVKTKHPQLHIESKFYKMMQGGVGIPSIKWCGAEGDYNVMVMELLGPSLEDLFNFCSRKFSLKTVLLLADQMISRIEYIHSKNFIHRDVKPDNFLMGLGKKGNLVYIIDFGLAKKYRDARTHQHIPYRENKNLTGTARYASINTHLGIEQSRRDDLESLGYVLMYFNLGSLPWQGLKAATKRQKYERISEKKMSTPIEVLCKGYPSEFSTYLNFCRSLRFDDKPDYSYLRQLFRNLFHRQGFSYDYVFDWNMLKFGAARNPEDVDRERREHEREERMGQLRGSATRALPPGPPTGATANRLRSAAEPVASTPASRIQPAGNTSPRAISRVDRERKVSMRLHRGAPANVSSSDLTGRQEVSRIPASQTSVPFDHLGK
Chain of JNK2 (P45984 whole entry): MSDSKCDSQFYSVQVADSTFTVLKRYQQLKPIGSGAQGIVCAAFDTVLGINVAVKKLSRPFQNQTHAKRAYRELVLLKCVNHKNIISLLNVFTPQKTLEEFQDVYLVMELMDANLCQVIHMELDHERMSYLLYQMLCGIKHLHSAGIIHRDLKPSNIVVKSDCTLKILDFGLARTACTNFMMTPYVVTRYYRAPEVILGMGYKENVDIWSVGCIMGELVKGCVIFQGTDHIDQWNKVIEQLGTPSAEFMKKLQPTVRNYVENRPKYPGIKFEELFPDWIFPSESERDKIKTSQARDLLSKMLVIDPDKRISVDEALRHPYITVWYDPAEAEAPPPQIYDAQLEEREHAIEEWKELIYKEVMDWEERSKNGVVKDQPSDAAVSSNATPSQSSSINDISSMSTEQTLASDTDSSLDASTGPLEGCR
Chain of MSK1b (O75582 whole entry): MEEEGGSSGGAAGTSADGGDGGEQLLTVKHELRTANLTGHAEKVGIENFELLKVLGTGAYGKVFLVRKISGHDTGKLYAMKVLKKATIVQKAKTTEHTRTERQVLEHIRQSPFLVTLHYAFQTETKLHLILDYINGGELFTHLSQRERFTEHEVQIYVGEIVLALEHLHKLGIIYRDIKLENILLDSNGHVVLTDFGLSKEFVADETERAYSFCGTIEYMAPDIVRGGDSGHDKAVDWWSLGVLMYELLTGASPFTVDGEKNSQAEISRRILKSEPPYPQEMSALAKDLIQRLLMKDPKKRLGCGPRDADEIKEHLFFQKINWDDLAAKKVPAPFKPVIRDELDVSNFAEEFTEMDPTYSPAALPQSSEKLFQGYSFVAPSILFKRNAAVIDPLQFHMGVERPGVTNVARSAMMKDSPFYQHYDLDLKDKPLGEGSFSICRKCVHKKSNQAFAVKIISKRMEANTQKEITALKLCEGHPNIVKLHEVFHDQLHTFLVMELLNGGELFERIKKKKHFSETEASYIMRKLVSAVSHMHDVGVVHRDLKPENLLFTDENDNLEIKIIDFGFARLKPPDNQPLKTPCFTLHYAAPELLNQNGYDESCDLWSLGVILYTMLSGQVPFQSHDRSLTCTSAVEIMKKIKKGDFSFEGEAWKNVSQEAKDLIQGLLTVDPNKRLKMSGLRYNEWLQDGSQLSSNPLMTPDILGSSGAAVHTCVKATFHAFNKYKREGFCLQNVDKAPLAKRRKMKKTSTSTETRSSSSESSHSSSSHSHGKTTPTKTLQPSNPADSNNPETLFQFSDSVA
Chain of EphA7 (Q15375 whole entry): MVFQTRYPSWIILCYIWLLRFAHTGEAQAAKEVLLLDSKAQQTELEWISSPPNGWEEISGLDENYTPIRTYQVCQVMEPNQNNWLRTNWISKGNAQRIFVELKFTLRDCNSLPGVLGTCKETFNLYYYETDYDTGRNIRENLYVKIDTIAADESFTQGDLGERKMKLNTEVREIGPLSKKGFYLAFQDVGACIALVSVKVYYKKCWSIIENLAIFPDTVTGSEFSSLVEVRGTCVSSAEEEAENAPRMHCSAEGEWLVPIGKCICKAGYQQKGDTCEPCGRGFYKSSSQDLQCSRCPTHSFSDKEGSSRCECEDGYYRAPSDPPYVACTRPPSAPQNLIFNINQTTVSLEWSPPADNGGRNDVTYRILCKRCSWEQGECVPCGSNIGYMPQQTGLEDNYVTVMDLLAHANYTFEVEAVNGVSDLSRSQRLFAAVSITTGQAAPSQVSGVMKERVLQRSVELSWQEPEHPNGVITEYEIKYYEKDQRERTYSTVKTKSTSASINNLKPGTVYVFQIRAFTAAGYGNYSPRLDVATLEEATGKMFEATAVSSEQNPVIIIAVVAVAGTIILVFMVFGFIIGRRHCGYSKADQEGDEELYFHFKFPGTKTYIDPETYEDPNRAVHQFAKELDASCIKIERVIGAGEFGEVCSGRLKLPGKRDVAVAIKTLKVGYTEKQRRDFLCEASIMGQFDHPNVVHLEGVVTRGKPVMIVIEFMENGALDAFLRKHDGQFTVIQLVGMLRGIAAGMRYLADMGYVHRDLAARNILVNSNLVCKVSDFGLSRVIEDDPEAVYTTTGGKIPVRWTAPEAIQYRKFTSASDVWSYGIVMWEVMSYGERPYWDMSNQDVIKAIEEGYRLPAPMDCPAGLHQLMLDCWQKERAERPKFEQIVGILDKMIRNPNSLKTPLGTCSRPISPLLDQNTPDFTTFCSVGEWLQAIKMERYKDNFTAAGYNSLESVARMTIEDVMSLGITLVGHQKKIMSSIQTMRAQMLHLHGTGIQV

With `Cc1cccc(-c2ccc(-c3cc4cnc(NCCCN5CCCC5=O)nc4n(CCCCN)c3=O)c(Cl)c2)n1` [compound 27, MR30], the “ΔTm MR30 (27)” value is -0.4 °C on DRAK1; -0.4 °C at DYRK2; 1.7 °C on EphA7; -1.1 °C at CaMK2b; 1.2 °C at PHKG2; -1.4 °C at MSK1b. Further, the “ΔTm MR30 (27)” value at CK1e was 6.4 °C; at PAK1, 4.6 °C; on JNK2, 0.7 °C.
On to `Cc1cccc(-c2ccc(-c3cc4cnc(Nc5cc(C(F)(F)F)ccc5C)nc4n(CCCCN)c3=O)c(Cl)c2)n1` [compound 28, 8-(4-Aminobutyl)-6-(2-chloro-4-(6-methylpyridin-2-yl)phenyl)-2-((2-methyl-5-(trifluoromethyl)phenyl)amino)pyrido[2,3-d]pyrimidin-7(8H)-one], for which the “ΔTm 28” value on DRAK1 was 0.3 °C; on DYRK2, -0.7 °C; at EphA7, 4.2 °C; on CaMK2b, 0.7 °C; at PHKG2, 2.4 °C; on MSK1b, 1.4 °C. Besides, the results for the “ΔTm 28” value on CK1e, on PAK1 and on JNK2 were 4.9 °C, 6.0 °C and 0.0 °C, respectively.
Turning to `Cc1cccc(-c2ccc(-c3cc4cnc(NCCCN5CCNCC5)nc4n(CCCCN)c3=O)c(Cl)c2)n1` [compound 29, 8-(4-Aminobutyl)-6-(2-chloro-4-(6-methylpyridin-2-yl)phenyl)-2-((3-(piperazin-1-yl)propyl)amino)pyrido[2,3-d]pyrimidin-7(8H)-one], the “ΔTm 29” value at DRAK1 is 1.3 °C; on DYRK2, -0.2 °C; on EphA7 it was 4.1 °C; at CaMK2b it was -0.5 °C; on PHKG2, 2.2 °C; on MSK1b, 0.2 °C. For the same compound, the “ΔTm 29” value is 5.8 °C on CK1e, 7.1 °C on PAK1 and -0.1 °C at JNK2.
As for `Cc1cccc(-c2ccc(-c3cc4cnc(Nc5ccc(CCCO)cc5)nc4n(CCCCN)c3=O)c(Cl)c2)n1` [compound 30, 8-(4-Aminobutyl)-6-(2-chloro-4-(6-methylpyridin-2-yl)phenyl)-2-((4-(3-hydroxypropyl)phenyl)amino)pyrido[2,3-d]pyrimidin-7(8H)-one], the “ΔTm 30” value on DRAK1 was 4.0 °C; on DYRK2 it was -1.1 °C; at EphA7, 6.4 °C; at CaMK2b, 0.3 °C; at PHKG2, 6.7 °C; at MSK1b, 3.6 °C. Moreover, the “ΔTm 30” value at CK1e worked out at 8.2 °C; at PAK1, 10.7 °C; on JNK2 it was 4.3 °C.
Take `Cc1cccc(-c2ccc(-c3cc4cnc(Nc5ccc(O)cc5)nc4n(CCCCN)c3=O)c(Cl)c2)n1` [compound 31, 8-(4-Aminobutyl)-6-(2-chloro-4-(6-methylpyridin-2-yl)phenyl)-2-((4-hydroxyphenyl)amino) pyrido[2,3-d]pyrimidin-7(8H)-one]: the “ΔTm 31” value at DRAK1 is 4.5 °C; at DYRK2, -0.8 °C; at EphA7, 5.1 °C; on CaMK2b, -0.4 °C; at PHKG2, 6.4 °C; at MSK1b, 4.3 °C. Also, the “ΔTm 31” value on CK1e is 7.5 °C; on PAK1, 10.6 °C; at JNK2, 4.2 °C.
Regarding `Cc1cccc(-c2ccc(-c3cc4cnc(Nc5ccc(C)c(O)c5)nc4n(CCCCN)c3=O)c(Cl)c2)n1` [compound 32, 8-(4-Aminobutyl)-6-(2-chloro-4-(6-methylpyridin-2-yl)phenyl)-2-((3-hydroxy-4-methylphenyl)amino)pyrido[2,3-d]pyrimidin-7(8H)-one], the “ΔTm 32” value on DRAK1 is 5.1 °C; on DYRK2, -1.4 °C; on EphA7 it was 5.4 °C; at CaMK2b, 0.3 °C; at PHKG2 it was 6.4 °C; at MSK1b it was 4.6 °C. The “ΔTm 32” value on CK1e was found to be 7.7 °C; on PAK1, 10.4 °C; on JNK2, 3.3 °C.
